According to publication PMC6119644 (Bioorganic & medicinal chemistry letters, 2018):

These molecules were tested against GOT1 (Homo sapiens, UniProt P17174) (assay: MDH coupled GOT1 enzymatic assay). Settings: MDH coupled GOT1 enzymatic assay.
Assay type: biochemical

Chain of GOT1 (P17174 whole entry): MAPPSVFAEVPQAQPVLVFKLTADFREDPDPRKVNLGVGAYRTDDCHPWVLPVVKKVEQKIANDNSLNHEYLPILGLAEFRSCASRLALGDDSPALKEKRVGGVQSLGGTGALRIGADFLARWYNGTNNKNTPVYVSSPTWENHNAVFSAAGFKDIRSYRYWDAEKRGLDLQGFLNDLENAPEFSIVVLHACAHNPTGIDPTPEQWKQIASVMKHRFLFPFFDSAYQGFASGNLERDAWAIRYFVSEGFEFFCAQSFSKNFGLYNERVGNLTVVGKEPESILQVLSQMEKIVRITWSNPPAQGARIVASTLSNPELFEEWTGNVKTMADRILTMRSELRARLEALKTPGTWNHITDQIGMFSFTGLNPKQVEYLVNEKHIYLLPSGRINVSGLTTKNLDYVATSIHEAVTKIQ

| GOT1 inhibition activity (in words) | Structure (SMILES) |
| --- | --- |
| lack of observed activity | O=C(Nc1ccccc1)N1CCN(c2cccc3ncccc23)CC1 [Compound 1k] |
| no significant activity | O=C(NCCc1c[nH]c2ccccc12)Nc1ccccc1 [Compound 3a] |
| lack of observed activity | O=C(Nc1ccccc1)N1CCN(c2cccc3[nH]ncc23)CC1 [Compound 1j] |

Same assay, conditions: relative to 1a; GOT1 inhibition

| enhancement in potency | Structure (SMILES) |
| --- | --- |
| ~ 10 fold | O=C(Nc1ccc(C(F)(F)F)cc1)N1CCN(c2cccc3[nH]ccc23)CC1 [Compound 2d] |
| ~ 10 fold | O=C(Nc1cccc(C(F)(F)F)c1)N1CCN(c2cccc3[nH]ccc23)CC1 [Compound 2g] |
| ~ 10 fold | O=C(Nc1ccc(Cl)cc1)N1CCN(c2cccc3[nH]ccc23)CC1 [Compound 2c] |
